Measurements taken from patent publication US20220259558A1, “METHODS FOR OBTAINING EYE FIELD PROGENITOR CELLS FROM HUMAN PLURIPOTENT STEM CELLS” (Novo Nordisk A/S, priority 2019, published 2022).

What was measured:
[1] = system: human embryonic stem cells (hESC); test: Initial attachment of hESC on different laminins after single cell seeding (brightfield); type: cell-based; conditions: after 12 hours; hESC grown and maintained on LN-521, single cell seeding
Procedure: LN-332 can be used for further differentiation.
An internally generated hESC line was maintained on human recombinant laminin (hrLN) coated plates (Biolaminin 521 LN, Biolamina) in NutriStem hPSC XF medium (Biological Industries), in a 5% CO2 incubator at 37° C. and passaged enzymatically at 1:10-1:20 ratio every 3-5 days. For passaging, confluent cultures were washed once with phosphate buffered saline (PBS) without calcium and magnesium ions and incubated for 5 min at 37° C. with TrypLE Select (GIBCO, Thermo Fisher Scientific). The enzyme was then carefully removed and the cells were collected in fresh NutriStem hPSC XF medium by gentle pipetting to obtain single cell suspension and the required volume plated on a freshly hrLN-521 coated dish. After passage, the medium was replaced with fresh prewarmed NutriStem hPSC XF medium and changed daily.
hESC-RPE monolayer differentiation hESC were plated at a cell density of 5.5×10^4 cells/cm2 on hrLN-332 laminin coated dishes at 10 μg/mL (Biolaminin 332 LN, Biolamina) using NutriStem hPSC XF medium. Rho-kinase inhibitor (Y-27632, Millipore) at a concentration of 10 μM was added during the first 24 hours, while cells were kept at 37° C., 5% CO2. After 24 hours, the culture medium was replaced with differentiation medium according to the examples. […]

[2] = system: hESC; test: Protein expression of hESC-derived progenitor cells by flow cytometry; type: cell-based, human; conditions: after 21 days, single SMAD inhibitor (GW788388)
Procedure: More than 40% of the cells show co-expression of the markers PAX6/MITF.
More than 50% of the cells show co-expression of the markers PAX6/VSX2.
(§1) hESC-RPE monolayer differentiation hESC were plated at a cell density of 5.5×10^4 cells/cm2 on hrLN-332 laminin coated dishes at 10 μg/mL (Biolaminin 332 LN, Biolamina) using NutriStem hPSC XF medium. Rho-kinase inhibitor (Y-27632, Millipore) at a concentration of 10 μM was added during the first 24 hours, while cells were kept at 37° C., 5% CO2. After 24 hours, the culture medium was replaced with differentiation medium according to the examples. The differentiation media “GMEM” in the following examples is always supplemented with Penicillin-Streptomycin solution (20 units/ml; Thermo Fisher), beta-Mercaptoethanol (0.5 mM; Thermo Fisher), Sodium pyruvate (1 mM; Thermo Fisher), Non-Essential Amino Acids (1×; Thermo Fisher).
In order to provide quantitative data of the cells generated with our BMP5-based protocol, we analysed the eye field progenitor cells generated under treatment with BMP5 for NR progenitor cells or with BMP5 and CHIR99021 for RPE progenitor cells by flow cytometry. Moreover, we tested single SMAD inhibition by removing NOGGIN from the protocol.

[3] = system: hESC; test: RNA (gene) expression analysis of differentiated hESC, real-time PCR; type: cell-based, human; conditions: for induction of gene expression of markers of eye field progenitor cells with a RPE progenitor cell identity: comparison of BMPs, day 7-21, with CHIR99021 day 12-21, single SMAD inhibition
Procedure: The graphs indicate the cycle threshold (CT) values from real-time polymerase chain reaction (PCR). Differentiated cells with BMP5 are collected at day 21 and RNA extracted, converted to cDNA and RNA expression analyses performed. hESC are used as comparison and CT values are inversely proportional to mRNA level.
RNA expression of RPE progenitor cell-related genes was quantified. Note that 200 ng/ml and 1000 ng/ml of BMP5 treatment promote the expression of RPE progenitor genes.
RNA expression of neural retina progenitor genes was quantified. 200 ng/ml and 1000 ng/ml of BMP5 treatment promote the expression of neural retina progenitor cell genes.
The effect of BMP5 is compared to that of BMP4, BMP7 and BMP4/7 heterodimer.
as §1
We analyzed gene expression at day 21 on cells that were generated with the following protocol, […]

[4] = system: hESC; test: Differentiation of hESC into eye field progenitor cells, marker-positive cells by immunofluorescence; type: cell-based, human
Excerpt: FIGS. 2A and 2B show the effect of human BMP5 and Activin A on the differentiation of hESC into VSX2 and MITF positive cells. Immunofluorescence showing conditions 1 and 2, without BMP5 or Activin A, with poor levels of MITF or VSX2. In contrast, the addition of BMP5 from day 12 (conditions 3 and 4), increase the number of cells positive for MITF and VSX2. The addition of Activin A from day 15, in combination with BMP5, has no clear additional effect. In contrast, the use of Activin A alone from day 12, or combination with BMP5 from day 15 (conditions 5 and 6), generates a lower number of cells positive for MITF and VSX2. […] The combination of IHH (Indian Hedgehog) and DKK2 (Dickkopf WNT Signaling Pathway Inhibitor 2) might help in the generation of MITF/VSX2 positive cells.
An initial treatment with the small molecule GW788388, NOGGIN and Endo IWR1 for 12 days, followed by a treatment with BMP5, IHH and DKK2 generates high numbers of PAX6/OTX2 double positive cells addressed by immunofluorescence. DAPI is used for nuclear staining of all cells.
The use of BMP5 induces the generation of MITF and VSX2 positive cells (second row), addressed by immunofluorescence, indicating the generation of neural retina progenitor cells. In contrast, the addition of the GSK3 inhibitor CHIR99021 (lower row) drastically blocks the expression of VSX2, and reinforces the expression of MITF and the generation of MITF positive cells with cobblestone morphology. This is indicative of RPE progenitor cells. First row, control without BMP5. DAPI is used for nuclear staining of all cells.
as §1
In order to differentiate hESC into eye progenitor cells, we tested the effect of BMP5 in different conditions in combination with small molecules and recombinant proteins that mimics developmental cues. We relied on sequential activation and/or repression of the common developmental pathways associated to eye development for our differentiation protocol and combined with activation of BMP pathway by BMP5. After cell dissociation, hESC line expanded on LN-521 were dissociated to single cells and seeded on LN-332 for differentiation. These cells adapted well to this laminin.
We decided to explore the inhibition of GSK3 with the small molecule CHIR99021 in combination with BMP5, and to remove the WNT inhibitor Endo IWR1 from the protocol, as GSK3 inhibition might activate canonical (beta-Catenin dependent) WNT signalling.
We decided to explore the effect of another SMAD inhibitor, RepSOX, in combination with NOGGIN, and to combine with BMP5 and CHIR99021 to obtain RPE progenitor cells positive for MITF. This will indicate if different SMAD inhibitors could be used in our BMP5-based protocol.

[5] = Example 1, immunofluorescence, factor from day 12 after NOGGIN+GW788388+Endo IWR1, to day 21

“LN-332: human recombinant laminin isoform 332 (Biolaminin 332 LN, Biolamina), coating matrix” was tested, and the “initial attachment of hESC” value [1] was “excellent attachment”.

In the case of “BMP5: human bone morphogenetic protein 5, recombinant protein (R&D systems), SEQ ID NO: 1”, the PAX6-positive cells [2] is reported as “more than 95%”, the “double positive cells PAX6/VSX2” value [2] is reported as “more than 50%” and the “best condition (BMP5 concentration) to induce eye field progenitor cells with a RPE progenitor cell identity” value ([3]; 0, 0.1, 200 and 1000 ng/ml tested, day 7-21, with CHIR99021 day 12-21, gene expression day 21) is reported as 200 ng/mL. The “best condition (BMP5 concentration) to generate eye field progenitor cells with a NR progenitor cell identity” value ([3]; 0, 0.1, 200 and 1000 ng/ml tested, day 7-21, VSX2 gene expression day 21) was 200 ng/mL, the “effect on generation of eye field progenitor cells” value ([3]; BMP5 at 1000 ng/ml) was “positive but milder effect” and the “induction of gene expression of markers of eye field progenitor cells with a RPE progenitor cell identity” value (“induction” for short) [3] was “superior effect”. For the same molecule, the “MITF, PAX6 and VSX2 mRNA levels” value ([3]; day 21, CT values, compared to hESC) was “increased compared to hESC”, the “generation of MITF and VSX2-positive cells” value [4, 5] was “generated MITF and VSX2-positive cells” and the “generation of MITF and VSX2-positive cells” value ([4]; Example 2, dual SMAD inhibition (NOGGIN+GW788388), BMP5 from day 7 to day 21) was “strongly generated MITF and VSX2-positive cells”. The “generation of double PAX6/OTX2 positive cells” value ([4]; immunofluorescence, GW788388, NOGGIN and Endo IWR1 for 12 days, then BMP5, IHH and DKK2) was “induces the generation of double PAX6/OTX2 positive cells”.

B1: Activin A: Recombinant protein (R&D systems/Peprotech) (protein, UniProt P08476 311-426, looked up)
Inhibin beta A chain: GLECDGKVNICCKKQFFVSFKDIGWNDWIIAPSGYHANYCEGECPSHIAGTSGSSLSFHSTVINHYRMRGHSPFANLKSCCVPTKLRPMSMLYYDDGQNIIKKDIQNMIVEECGCS
modifications: Inhibin beta A chain
With B1 the “generation of MITF and VSX2-positive cells” value [4, 5] was “negative effect”.

B2: DKK2: Dickkopf WNT Signaling Pathway Inhibitor 2, recombinant protein (protein, UniProt Q9UBU2 34-259, looked up)
Dickkopf-related protein 2: KLNSIKSSLGGETPGQAANRSAGMYQGLAFGGSKKGKNLGQAYPCSSDKECEVGRYCHSPHQGSSACMVCRRKKKRCHRDGMCCPSTRCNNGICIPVTESILTPHIPALDGTRHRDRNHGHYSNHDLGWQNLGRPHTKMSHIKGHEGDPCLRSSDCIEGFCCARHFWTKICKPVLHQGEVCTKQRKKGSHGLEIFQRCDCAKGLSCKVWKDATYSSKARLHVCQKI
In the case of B2, the “generation of MITF and VSX2-positive cells” value [4, 5] is reported as “not sufficient to generate MITF or VSX2-positive cells”.

B3: BMP7: member of the BMP family compared to BMP5 (protein, UniProt P18075 293-431, looked up)
Bone morphogenetic protein 7: STGSKQRSQNRSKTPKNQEALRMANVAENSSSDQRQACKKHELYVSFRDLGWQDWIIAPEGYAAYYCEGECAFPLNSYMNATNHAIVQTLVHFINPETVPKPCCAPTQLNAISVLYFDDSSNVILKKYRNMVVRACGCH
For B3, the “induction” value [3] was “better than BMP4”.

B4: BMP4: member of the BMP family compared to BMP5 (protein, UniProt P12644 293-408, looked up)
Bone morphogenetic protein 4: SPKHHSQRARKKNKNCRRHSLYVDFSDVGWNDWIVAPPGYQAFYCHGDCPFPLADHLNSTNHAIVQTLVNSVNSSIPKACCVPTELSAISMLYLDEYDKVVLKNYQEMVVEGCGCR
For B4, the “induction” value [3] was “least capacity to induce these markers”.
